How the values were obtained:
[1] = system: Thrips; experiment: Thrips damage rating on cotton plants (Fibermax cotton variety 960), Example 2; format: in vivo; conditions: 1 = no damage, 5 = dead
Excerpt: This example illustrates the effect of the compositions from Table 1 for cotton plants planted in soil known to have nematode (Rotylenchulus reniformis) pressure. FIGS. 4 and 5 illustrate the Thrips damage ratings at three and four weeks, respectively, after planting. FIG. 6 illustrates the plant height seven weeks after planting. The cotton plants utilized were commercially available Fibermax cotton variety 960.

[2] = system: Thrips; experiment: Thrips damage rating on cotton plants (Delta and Pineland variety 555), Example 1; format: in vivo; conditions: cotton variety 555, 1 = no damage, 5 = plant completely damaged (dead)
Excerpt: This example illustrates the effect of a composition of the invention on cotton plant damage and plant height for cotton plants planted in soil known to have nematode (Rotylenchulus reniformis) pressure. The cotton plants utilized were commercially available Delta and Pineland variety 555.
The compositions described in Table 1 below were applied either as a seed treatment (Samples B, C, and E-G) or in furrow (Sample D) at the respective application rates set forth in Table 1.

CNC(=O)O/N=C/C(C)(C)SC [Sample D, aldicarb] was tested, and the “Thrips Damage Rating” value ([1]; 3 weeks after planting) was 2.5, the “Thrips Damage Rating” value ([1]; 4 weeks after planting) was 2.1 and the “Thrips Damage Rating” value ([2]; 3 weeks after planting) was 1.13. For the same compound, the “Thrips Damage Rating” value ([2]; 4 weeks after planting) was 1.5.
O=[N+]([O-])NC1=NCCN1Cc1ccc(Cl)nc1 [E, imidacloprid] was tested, and the “Thrips Damage Rating” value ([1]; 3 weeks after planting) was 2.88, the “Thrips Damage Rating” value ([1]; 4 weeks after planting) was 3 and the “Thrips Damage Rating” value ([2]; 3 weeks after planting) was 2.25. The “Thrips Damage Rating” value ([2]; 4 weeks after planting) was 2.4.
In the case of O=[N+]([O-])NC1=NCCN1Cc1ccc(Cl)nc1 [B, imidacloprid], the “Thrips Damage Rating” value ([1]; 3 weeks after planting) is reported as 2.63, the “Thrips Damage Rating” value ([1]; 4 weeks after planting) is reported as 2.5 and the “Thrips Damage Rating” value ([2]; 3 weeks after planting) is reported as 2. For the same compound, the “Thrips Damage Rating” value ([2]; 4 weeks after planting) was 2.3.
